Values quoted from earlier work in US20090142428A1, “Extracts from the Bark of Corynanthe Species and Use Thereof as Well as Medicaments, Dietetic Food Products and Pharmaceutical Preparations Containing Said Extracts” (DR. WILLMAR SCHWABE GMBH & CO. KG, priority 2005, published 2009).

Test system: 5-α-reductase
Conditions: uptake of finasteride

Q: What does the source list for `CC(C)(C)NC(=O)[C@H]1CC[C@H]2[C@@H]3CC[C@H]4NC(=O)C=C[C@]4(C)[C@H]3CC[C@]12C` [finasteride]?
A: reduction of the prostatic DHT concentration: up to 85%; average reduction of the prostate size (period of up to 12 months): about 20%
